# Tested on: endogenous cellular STAT1 (phosphorylated at Tyr701) in NCI-H1373 cells
# Test: Phospho-STAT1 (Tyr701) LANCE Ultra TR-FRET Detection Assay
# Format: cell-based
# Conditions: Homo sapiens, NCI-H1373, 48 h, phospho-STAT1 (Tyr701) induction, read-out: NH1373 pSTAT1 EC50
row,Compound,EC50
1,"Cc1ncc(-c2cc3ccn(C[C@@H]4CCC[C@H](Nc5cn[nH]c(=O)c5C(F)(F)F)C4)c(=O)c3cc2F)nc1N [Example 262, 6-(6-amino-5-methylpyrazin-2-yl)-7-fluoro-2-(((1R,3S)-3-((6-oxo-5-(trifluoromethyl)-1,6-dihydropyridazin-4-yl)amino)cyclohexyl)methyl)isoquinolin-1(2H)-one]",193 nM
2,"O=c1[nH]ncc(N[C@H](CCCn2ccc3cc(-c4ncc(C(F)(F)F)cn4)c(F)cc3c2=O)COC(F)(F)F)c1C(F)(F)F [Example 435, (R)-7-fluoro-2-(4-((6-oxo-5-(trifluoromethyl)-1,6-dihydropyridazin-4-yl)amino)-5-(trifluoromethoxy)pentyl)-6-(5-(trifluoromethyl)pyrimidin-2-yl)isoquinolin-1(2H)-one]",2.83 nM
3,"Cc1nc(N)nc(-c2cc3ccn(CCC[C@H](C)Nc4cn[nH]c(=O)c4C(F)(F)F)c(=O)c3cc2F)n1 [Example 366, (S)-6-(4-amino-6-methyl-1,3,5-triazin-2-yl)-7-fluoro-2-(4-((6-oxo-5-(trifluoromethyl)-1,6-dihydropyridazin-4-yl)amino)pentyl)isoquinolin-1(2H)-one]",92.5 nM
4,"C[C@@H](CCCn1ccc2cc(-c3ncc(-c4cc(C(F)(F)F)n(C)n4)cn3)c(F)cc2c1=O)Nc1cn[nH]c(=O)c1C(F)(F)F [Example 93, (S)-7-fluoro-6-(5-(1-methyl-5-(trifluoromethyl)-1H-pyrazol-3-yl)pyrimidin-2-yl)-2-(4-((6-oxo-5-(trifluoromethyl)-1,6-dihydropyridazin-4-yl)amino)pentyl)isoquinolin-1(2H)-one]",45.9 nM
5,"Nc1nc(-c2cc3ncn(CCC[C@H](COC(F)F)Nc4cn[nH]c(=O)c4C(F)(F)F)c(=O)c3cc2F)ncc1C(F)(F)F [Example 385, (R)-7-(4-amino-5-(trifluoromethyl)pyrimidin-2-yl)-3-(5-(difluoromethoxy)-4-((6-oxo-5-(trifluoromethyl)-1,6-dihydropyridazin-4-yl)amino)pentyl)-6-fluoroquinazolin-4(3H)-one]",13.3 nM
6,"O=c1[nH]ncc(NC[C@H]2C[C@H](Cn3ccc4cc(-c5ncc(C(F)(F)F)cn5)c(F)c(F)c4c3=O)C2)c1C(F)(F)F [Example 130, 7,8-difluoro-2-(((1R,3R)-3-(((6-oxo-5-(trifluoromethyl)-1,6-dihydropyridazin-4-yl)amino)methyl)cyclobutyl)methyl)-6-(5-(trifluoromethyl)pyrimidin-2-yl)isoquinolin-1(2H)-one]",1470 nM
7,"C[C@@H](CCCn1cnc2cc(-c3ncc(Cl)cn3)c(F)cc2c1=O)Nc1cn[nH]c(=O)c1C(F)(F)F [Example 200, (S)-7-(5-chloropyrimidin-2-yl)-6-fluoro-3-(4-((6-oxo-5-(trifluoromethyl)-1,6-dihydropyridazin-4-yl)amino)pentyl)quinazolin-4(3H)-one]",29.1 nM
8,"C[C@@H](CCCn1cnc2cc(-c3cnc(Cl)c(N)n3)c(F)cc2c1=O)Nc1cn[nH]c(=O)c1C(F)(F)F [Example 352, (S)-7-(6-amino-5-chloropyrazin-2-yl)-6-fluoro-3-(4-((6-oxo-5-(trifluoromethyl)-1,6-dihydropyridazin-4-yl)amino)pentyl)quinazolin-4(3H)-one]",64.4 nM
9,"CCOC[C@@H](CCCn1ccc2cc(-c3ncc(C(F)(F)F)cn3)c(F)cc2c1=O)Nc1cn[nH]c(=O)c1C(F)(F)F [Example 180, (R)-2-(5-ethoxy-4-((6-oxo-5-(trifluoromethyl)-1,6-dihydropyridazin-4-yl)amino)pentyl)-7-fluoro-6-(5-(trifluoromethyl)pyrimidin-2-yl)isoquinolin-1(2H)-one]",1.89 nM
10,"O=c1[nH]ncc(N[C@H](CCCn2ccc3cc(-c4nc5n(n4)CCNC5)c(F)cc3c2=O)COC(F)F)c1C(F)(F)F [Example 439, (R)-2-(5-(difluoromethoxy)-4-((6-oxo-5-(trifluoromethyl)-1,6-dihydropyridazin-4-yl)amino)pentyl)-7-fluoro-6-(5,6,7,8-tetrahydro-[1,2,4]triazolo[1,5-a]pyrazin-2-yl)isoquinolin-1(2H)-one]",534 nM
11,"O=c1[nH]ncc(N[C@H]2CCC[C@@H](Cn3ccc4cc(-c5nc6ccccn6n5)c(F)cc4c3=O)C2)c1C(F)(F)F [Example 488, 6-([1,2,4]triazolo[1,5-a]pyridin-2-yl)-7-fluoro-2-(((1R,3S)-3-((6-oxo-5-(trifluoromethyl)-1,6-dihydropyridazin-4-yl)amino)cyclohexyl)methyl)isoquinolin-1(2H)-one]",0.51 nM
12,"O=c1[nH]ncc(N[C@H]2CCCC[C@H]2CCn2ccc3cc(-c4ncc(C(F)(F)F)cn4)c(F)cc3c2=O)c1C(F)(F)F (racemic) [Example 436, (rac)-7-fluoro-2-(2-((1S,2S)-2-((6-oxo-5-(trifluoromethyl)-1,6-dihydropyridazin-4-yl)amino)cyclohexyl)ethyl)-6-(5-(trifluoromethyl)pyrimidin-2-yl)isoquinolin-1(2H)-one]",443 nM
13,"C[C@@H](CCCn1ccc2cc(-c3nccc(C(F)F)n3)c(F)cc2c1=O)Nc1cn[nH]c(=O)c1C(F)(F)F [Example 197, (S)-6-(4-(difluoromethyl)pyrimidin-2-yl)-7-fluoro-2-(4-((6-oxo-5-(trifluoromethyl)-1,6-dihydropyridazin-4-yl)amino)pentyl)isoquinolin-1(2H)-one]",638 nM
14,"COc1cnc(-c2cc3ncn(CCC[C@H](C)Nc4cn[nH]c(=O)c4C(F)(F)F)c(=O)c3cc2F)nc1NC1CC1 [Example 220, (S)-7-(4-(cyclopropylamino)-5-methoxypyrimidin-2-yl)-6-fluoro-3-(4-((6-oxo-5-(trifluoromethyl)-1,6-dihydropyridazin-4-yl)amino)pentyl)quinazolin-4(3H)-one]",195 nM
15,"O=c1[nH]ncc(N[C@H]2CCC[C@@H](Cn3ccc4cc(-c5cnc(OC(F)F)cn5)c(F)cc4c3=O)C2)c1C(F)(F)F [Example 259, 6-(5-(difluoromethoxy)pyrazin-2-yl)-7-fluoro-2-(((1R,3S)-3-((6-oxo-5-(trifluoromethyl)-1,6-dihydropyridazin-4-yl)amino)cyclohexyl)methyl)isoquinolin-1(2H)-one]",183 nM
16,"C[C@H](Nc1cn[nH]c(=O)c1C(F)(F)F)[C@@H]1C[C@H]1Cn1ccc2cc(-c3ncc(C(F)(F)F)cn3)c(F)cc2c1=O [Example 68, 7-fluoro-2-[[(1R,2R)-2-[(1S)-1-[[6-oxo-5-(trifluoromethyl)-1H-pyridazin-4-yl]amino]ethyl]cyclopropyl]methyl]-6-[5-(trifluoromethyl)pyrimidin-2-yl]isoquinolin-1-one]",10000 nM
17,"C[C@@H](CCCn1ccc2cc(-c3ncc(S(C)(=O)=O)cn3)c(F)cc2c1=O)Nc1cn[nH]c(=O)c1C(F)(F)F [Example 84, (S)-7-fluoro-6-(5-(methylsulfonyl)pyrimidin-2-yl)-2-(4-((6-oxo-5-(trifluoromethyl)-1,6-dihydropyridazin-4-yl)amino)pentyl)isoquinolin-1(2H)-one]",263 nM
18,"Nc1nc(-c2cc3ncn(CC[C@H]4CCC[C@@H]4Nc4cn[nH]c(=O)c4C(F)(F)F)c(=O)c3cc2F)ncc1Cl [Example 449, 7-(4-amino-5-chloropyrimidin-2-yl)-6-fluoro-3-(2-((1R,2S)-2-((6-oxo-5-(trifluoromethyl)-1,6-dihydropyridazin-4-yl)amino)cyclopentyl)ethyl)quinazolin-4(3H)-one]",6.42 nM
19,"C[C@H](CCCn1ccc2cc(-c3ccc(C(F)(F)F)cn3)ccc2c1=O)Nc1cn[nH]c(=O)c1C(F)(F)F (single isomer, unassigned) [Example 2]",10000 nM
20,Nc1nc(-c2cc3ccn(C[C@@H]4CCC[C@H](Nc5cn[nH]c(=O)c5C(F)(F)F)C4)c(=O)c3c(F)c2F)ncc1C(F)(F)F [Example 234],1.55 nM
21,"Nc1nc(-c2cc3ncn(CCC[C@H](COC(F)F)Nc4cn[nH]c(=O)c4C(F)(F)F)c(=O)c3cc2F)ccc1C(F)(F)F [Example 390, (R)-7-(6-amino-5-(trifluoromethyl)pyridin-2-yl)-3-(5-(difluoromethoxy)-4-((6-oxo-5-(trifluoromethyl)-1,6-dihydropyridazin-4-yl)amino)pentyl)-6-fluoroquinazolin-4(3H)-one]",11.7 nM
22,"CC(CCCn1ccc2cc(-c3ccc(C(F)(F)F)cn3)ccc2c1=O)Nc1cn[nH]c(=O)c1C(F)(F)F (centres unmarked) [Example 1, 2-(4-((6-oxo-5-(trifluoromethyl)-1,6-dihydropyridazin-4-yl)amino)pentyl)-6-(5-(trifluoromethyl)pyridin-2-yl)isoquinolin-1(2H)-one]",97.8 nM
23,"Nc1nc(-c2cc3ccn(C[C@H]4CC[C@@H](Nc5cn[nH]c(=O)c5C(F)(F)F)C4)c(=O)c3cc2F)ncc1C(F)(F)F [Example 447, 6-(4-amino-5-(trifluoromethyl)pyrimidin-2-yl)-7-fluoro-2-(((1S,3R)-3-((6-oxo-5-(trifluoromethyl)-1,6-dihydropyridazin-4-yl)amino)cvclopentyl)methyl)isoquinolin-1(2H)-one]",25.6 nM
24,"Cc1c[nH]c2nc(-c3cc4ncn(CCC[C@H](C)Nc5cn[nH]c(=O)c5C(F)(F)F)c(=O)c4cc3F)ncc12 [Example 63, 6-fluoro-7-(5-methyl-7H-pyrrolo[2,3-d]pyrimidin-2-yl)-3-[(4S)-4-[[6-oxo-5-(trifluoromethyl)-1H-pyridazin-4-yl]amino]pentyl]quinazolin-4-one]",7.15 nM
25,"Nc1nc(-c2cc3ccn(CC[C@H]4CC[C@@H]4Nc4cn[nH]c(=O)c4C(F)(F)F)c(=O)c3cc2F)ncc1C(F)(F)F [Example 123, 6-(4-amino-5-(trifluoromethyl)pyrimidin-2-yl)-7-fluoro-2-(2-((1R,2S)-2-((6-oxo-5-(trifluoromethyl)-1,6-dihydropyridazin-4-yl)amino)cyclobutyl)ethyl)isoquinolin-1(2H)-one]",6.29 nM
26,COc1cnc(-c2cc3ncn(CCC[C@H](C)Nc4cn[nH]c(=O)c4C(F)(F)F)c(=O)c3cc2F)nc1N1CC(F)(F)C1 [Example 211],28.3 nM

# — patent publication US12459922B2 (Gilead Sciences, Inc., priority 2022, dated 2025)
